We go through 20 compounds from US20050026911A1, “Benzotriazapinone salts and methods for using same” (priority 2003, published 2005).

The target in this test is T1, gastrin (CCK2) receptors (Rattus norvegicus, UniProt P30553).
T1 construct: The stomach was excised and flushed with ca. 1 ml of unbuffered physiological saline solution; from tissue; host or cells: isolated whole stomach of immature rats (ca. 21 days old)
T1 sequence (P30553 1-452): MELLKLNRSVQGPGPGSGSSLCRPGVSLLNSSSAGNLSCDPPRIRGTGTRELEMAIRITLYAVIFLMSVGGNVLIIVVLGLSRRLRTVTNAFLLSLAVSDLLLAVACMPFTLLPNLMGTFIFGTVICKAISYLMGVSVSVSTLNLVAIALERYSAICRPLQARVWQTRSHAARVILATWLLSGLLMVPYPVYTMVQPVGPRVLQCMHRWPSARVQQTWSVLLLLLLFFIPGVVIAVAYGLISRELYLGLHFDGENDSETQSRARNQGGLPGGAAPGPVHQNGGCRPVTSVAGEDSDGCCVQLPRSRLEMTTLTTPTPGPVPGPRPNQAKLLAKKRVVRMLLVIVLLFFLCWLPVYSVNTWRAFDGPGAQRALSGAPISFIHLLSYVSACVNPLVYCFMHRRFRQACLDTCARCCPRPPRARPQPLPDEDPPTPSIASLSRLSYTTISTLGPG
As to the kind of experiment: gastrin (CCK2) antagonist activity in an immature rat stomach assay. Particulars: pentagastrin dose-response curves, acid secretion, read-out: pKB rat stomach (converted). The procedure:
The compounds of the examples were tested for gastrin (CCK2) antagonist activity in an immature rat stomach assay. The procedure was as follows:
The oesophagus of immature rats (33-50 g, ca. 21 days old) was ligated at the level of the cardiac sphincter and the duodenal sphincter was cannulated. The stomach was excised and flushed with ca. 1 ml of unbuffered physiological saline solution. The fundus was punctured and cannulated. A further 4-5 ml of unbuffered solution was flushed through the stomach to ensure the preparation was not leaking. […] The stomach was continuously perfused at a rate of 1 ml min^−1 with unbuffered solution gassed with 100% O2 with the perfusate passing over an internally referenced pH-electrode fixed 12 cm above the stomach.
After 120 min of stabilisation the drugs were added directly to the serosal solution in the organ bath and after a further 60 min cumulative pentagastrin dose-response curves were started.
Consider `CC(C)(C)C(=O)CN1C(=O)N(CC(=O)Nc2cccc(N3CCOCC3)c2)N=C(C2CCCCC2)c2ccccc21` [Example 123, 2-[5-Cyclohexyl-1-(3,3-dimethyl-2-oxo-butyl)-2-oxo-1,2-dihydro-3H-1,3,4-benzotriazepin-3-yl]-N-(3-morpholin-4-yl-phenyl)-acetamide], for which the Kb was 18.2 nM.

Consider `CC1(C(=O)CN2C(=O)N(CC(=O)Nc3cccc(-c4nc(=O)o[nH]4)c3)N=C(C3CCCCC3)c3ccccc32)CCCC1` [Example 87], for which the Kb was 3.16 nM.

Take `CNc1nc(-c2cccc(NC(=O)CN3N=C(C4CCCCC4)c4ccccc4N(CC(=O)C(C)(C)C)C3=O)c2)cs1` [Example 150, 2-[5-Cyclohexyl-1-(3,3-dimethyl-2-oxo-butyl)-2-oxo-1,2-dihydro-3H-1,3,4-benzotriazepin-3-yl]-N-[3-(2-methylamino-thiazol-4-yl)-phenyl]-acetamide]: the Kb was 1.29 nM.

Turning to `CN(CC(=O)O)c1cccc(NC(=O)CN2N=C(C3CCCCC3)c3ccccc3N(CC(=O)C(C)(C)C)C2=O)c1` [Example 96, [(3-{2-[5-Cyclohexyl-1-(3,3-dimethyl-2-oxo-butyl)-2-oxo-1,2-dihydro-3H-1,3,4-benzotriazepin-3-yl]-acetylamino}-phenyl)-methyl-amino]-acetic acid], the Kb is 7.24 nM.

Regarding `CC1(C(=O)CN2C(=O)N(CC(=O)Nc3cccc(CC(=O)O)c3)N=C(C3CCCCC3)c3ccccc32)CCCC1` [Example 82, [3-(2-{5-Cyclohexyl-1-[2-(1-methyl-cyclopentyl)-2-oxo-ethyl]-2-oxo-1,2-dihydro-3H-1,3,4-benzotriazepin-3-yl}-acetylamino)-phenyl]-acetic acid], the Kb is 9.55 nM.

`CC1CCC(C2=NN(CC(=O)Nc3cccc(C(=O)O)c3)C(=O)N(CC(=O)C(C)(C)C)c3ccccc32)CC1` (centres unmarked) [Example 102, 3-{2-[1-(3,3-Dimethyl-2-oxo-butyl)-5-(4-methyl-cyclohexyl)-2-oxo-1,2-dihydro-3H-1,3,4-benzotriazepin-3-yl]-acetylamino}-benzoic acid]: the Kb was 0.776 nM.

Regarding `CC(C)(C)C(=O)CN1C(=O)N(CC(=O)Nc2cccc(/C=C/C(=O)O)c2)N=C(C2CCCCC2)c2ccccc21` [Example 60, 3-(3-{2-[5-Cyclohexyl-1-(3,3-dimethyl-2-oxo-butyl)-2-oxo-1,2-dihydro-3H-1,3,4-benzotriazepin-3-yl]-acetylamino}-phenyl)-acrylic acid], the Kb was 3.47 nM.

On to `CC(C)(C)C(=O)CN1C(=O)N(CC(=O)Nc2cccc(-c3ccc(C(=O)O)s3)c2)N=C(C2CCCCC2)c2ccccc21` [Example 157, 5-(3-{2-[5-Cyclohexyl-1-(3,3-dimethyl-2-oxo-butyl)-2-oxo-1,2-dihydro-3H-1,3,4-benzotriazepin-3-yl]-acetylamino}-phenyl)-thiophene-2-carboxylic acid], for which the Kb was 7.76 nM.

With `CC(=O)N(CC(=O)O)c1cccc(NC(=O)CN2N=C(C3CCCCC3)c3ccccc3N(CC(=O)C(C)(C)C)C2=O)c1` [Example 65, [Acetyl-(3-{2-[5-cyclohexyl-1-(3,3-dimethyl-2-oxo-butyl)-2-oxo-1,2-dihydro-3H-1,3,4-benzotriazepin-3-yl]-acetylamino}-phenyl)-amino]-acetic acid], the Kb is 52.5 nM.

Regarding `CC(C)(C)C(=O)CN1C(=O)N(CC(=O)Nc2cccc(N3CCCC3C(=O)O)c2)N=C(C2CCCCC2)c2ccccc21` (stereo in doubt) [Example 76, (R)-]-(3-{2-[5-Cyclohexyl-1-(3,3-dimethyl-2-oxobutyl)-2-oxo-1,2-dihydro-3H-1,3,4-benzotriazepin-3-yl]-acetylamino}-phenyl)-pyrrolidine-2-carboxylic acid], the Kb was 110 nM.

For `CC(C)(C)C(=O)CN1C(=O)N(CC(=O)Nc2ccc3ccn(CC(=O)O)c3c2)N=C(C2CCCCC2)c2ccccc21` [Example 70, (6-{2-[5-Cyclohexyl-1-(3,3-dimethyl-2-oxo-butyl)-2-oxo-1,2-dihydro-3H-1,3,4-benzotriazepin-3-yl]-acetylamino}-indol-1-yl)-acetic acid], the Kb was 0.851 nM.

For `CC(C)(C)C(=O)CN1C(=O)N(CC(=O)Nc2cccc3nn(CC(=O)O)cc23)N=C(C2CCCCC2)c2ccccc21` [Example 142, (4-{2-[5-Cyclohexyl-1-(3,3-dimethyl-2-oxo-butyl)-2-oxo-1,2-dihydro-3H-1,3,4-benzotriazepin-3-yl]-acetylamino}-indazol-2-yl)-acetic acid], the Kb was 15.5 nM.

In the case of `CNc1cccc(NC(=O)CN2N=C(CC(C)C)c3ccccc3N(CC(=O)C(C)(C)C)C2=O)c1` [Example 13, 2-[1-(3,3-Dimethyl-2-oxo-butyl)-5-isobutyl-2-oxo-1,2-dihydro-3H-1,3,4-benzotriazepin-3-yl]-N-(3-methylaminophenyl)-acetamide], the Kb is 51.3 nM.

Turning to `O=C(O)CSc1cccc(NC(=O)CN2N=C(C3CCCCC3)c3ccccc3N(CC(=O)C3CCCCC3)C2=O)c1` [Example 100, (3-{2-[5-Cyclohexyl-1-(2-cyclohexyl-2-oxo-ethyl)-2-oxo-1,2-dihydro-3H-1,3,4-benzotriazepin-3-yl]-acetylamino}-phenylsulfanyl)-acetic acid], the Kb is 0.575 nM.

`CC(C)(C)C(=O)CN1C(=O)N(CC(=O)Nc2cccc(-c3nc(C(=O)O)co3)c2)N=C(C2CCCCC2)c2ccccc21` [Example 144, 2-(3-{2-[5-Cyclohexyl-1-(3,3-dimethyl-2-oxo-butyl)-2-oxo-1,2-dihydro-3H-1,3,4-benzotriazepin-3-yl]-acetylamino}-phenyl)-oxazole-4-carboxylic acid]: the Kb is 4.17 nM.

As to `CN(c1cccc(NC(=O)CN2N=C(C3CCCCC3)c3ccccc3N(CC(=O)C3CCCC3)C2=O)c1)c1nnn[nH]1` [Example 124, 2-[5-Cyclohexyl-1-(2-cyclopentyl-2-oxo-ethyl)-2-oxo-1,2-dihydro-3H-1,3,4-benzotriazepin-3-yl]-N-(3-[methyl-(2H-tetrazol-5-yl)-amino]-phenyl)-acetamide], the Kb is 2.14 nM.

On to `CN(C)c1cccc(NC(=O)CN2N=C(C3CCCCC3)c3ccccc3N(CC(=O)C(C)(C)C)C2=O)c1` [Example 33, 2-[5-Cyclohexyl-J-(3,3-dimethyl-2-oxo-butyl)-2-oxo-1,2-dihydro-3H-1,3,4-benzotriazepin-3-yl]-N-(3-dimethylamino-phenyl)-acetamide], for which the Kb was 91.2 nM.

On to `O=C(O)Cc1cccc(NC(=O)CN2N=C(C3CCCCC3)c3ccccc3N(CC(=O)C3CCCCC3)C2=O)c1` [Example 80, (3-{2-[5-Cyclohexyl-1-(2-cyclohexyl-2-oxo-ethyl)-2-oxo-1,2-dihydro-3H-1,3,4-benzotriazepin-3-yl]-acetylamino}-phenyl)-acetic acid], for which the Kb was 3.39 nM.

Take `CC(C)(C)C(=O)CN1C(=O)N(CC(=O)Nc2cccc(NCC(=O)O)c2)N=C(C2CCCCC2)c2ccccc21` [Example 52]: the Kb was 32.4 nM.

With `CNc1cccc(NC(=O)CN2N=C(C3CCCC3)c3ccccc3N(CC(=O)C(C)(C)C)C2=O)c1` [Example 11, 2-[5-Cyclopentyl-1-(3,3-dimethyl-2-oxo-butyl)-2-oxo-1,2-dihydro-3H-1,3,4-benzotriazepin-3-yl]-N-(3-methylaminophenyl)-acetamide], the Kb was 44.7 nM.
